# Activity calls are given as the source filed them. No cut-off for these calls is given here.
# Legend:
# Assay type in all cases: functional, cell-based
# [1] = Cytotoxicity against human UKE-1 cells measured after 3 days; conditions: UKE1, 72 h
# OCI-LY19 = test: Cytotoxicity against human OCILY19 cells measured after 3 days; conditions: OCI-LY19, 72 h
# [2] = Cytotoxicity against human EFM-192A cells measured after 3 days; conditions: 72 h
# SUM-159-PT = test: Cytotoxicity against human SUM159PT cells measured after 3 days; conditions: 72 h
# Granta-519 = test: Cytotoxicity against human Granta-519 cells measured after 3 days; conditions: Granta-519, 72 h
# OCI-AML2 = test: Cytotoxicity against human OCI-AML2 cells measured after 3 days; conditions: OCI-AML2, 72 h
# HCC1954 = test: Cytotoxicity against human HCC1954 cells measured after 3 days; conditions: HCC1954, 72 h
# [3] = Cytotoxicity against human OV7 cells measured after 3 days; conditions: OV7, 72 h
# Calu-6 = test: Cytotoxicity against human Calu-6 cells after 8 days; conditions: Calu-6, 192 h
# EFM-19 = test: Cytotoxicity against human EFM-19 cells measured after 3 days; conditions: EFM-19, 72 h
# U-698-M = test: Cytotoxicity against human U-698-M cells measured after 3 days; conditions: 72 h
# BJAB = test: Cytotoxicity against human BJAB cells measured after 3 days; conditions: 72 h
# SUD4 = test: Cytotoxicity against human SU-DHL-4 cells measured after 3 days; conditions: SU-DHL-4, 72 h
# [4] = Cytotoxicity against human RKN cells measured after 3 days; conditions: 72 h
# [5] = Cytotoxicity against human KMS-28PE cells measured after 3 days; conditions: 72 h
# [6] = Cytotoxicity against human OV56 cells measured after 3 days; conditions: OV56, 72 h
# SUP-B15 = test: Cytotoxicity against human SUP-B15 cells measured after 3 days; conditions: SUP-B15, 72 h
# [7] = Cytotoxicity against human NCE-G 120 cells measured after 3 days; conditions: NCE-G 120, 72 h
# PC-9 = test: Antiproliferative activity against human PC-9 cells assessed as reduction in colony formation at 1 uM supplemented with fresh medium containing compound every 3 days by MTT staining based assay; conditions: time 9.0 day
# [8] = Cytotoxicity against human NCE-G 61 cells measured after 3 days; conditions: NCE-G 61, 72 h
# [9] = Cytotoxicity against human NCE-G 111 cells measured after 3 days; conditions: NCE-G 111, 72 h
# OAW-42 = test: Cytotoxicity against human OAW-42 cells measured after 3 days; conditions: OAW-42, 72 h
# ES-2 = test: Cytotoxicity against human ES2 cells measured after 3 days; conditions: ES-2, 72 h
# [10] = Cytotoxicity against human HCC1493 cells measured after 3 days; conditions: HCC1493, 72 h
# [11] = Cytotoxicity against human HCC630 cells measured after 3 days; conditions: HCC630, 72 h
# SU-DHL10 = test: Cytotoxicity against human SU-DHL-10 cells measured after 3 days; conditions: SU-DHL10, 72 h
# HCC1187 = test: Cytotoxicity against human HCC1187 cells measured after 3 days; conditions: HCC1187, 72 h
# NCI-H2444 = test: Cytotoxicity against human NCI-H2444 cells measured after 3 days; conditions: NCI-H2444, 72 h
# ZR-75-1 = test: Cytotoxicity against human ZR-75-1 cells measured after 8 days; conditions: ZR-75-1, 192 h
# [12] = Cytotoxicity against human COV362 cells measured after 3 days; conditions: COV362, 72 h
# Jurkat = test: Cytotoxicity against human Jurkat cells measured after 3 days; conditions: 72 h
# PC-3 = test: Cytotoxicity against human PC-3 cells measured after 3 days; conditions: PC-3, 72 h
# DU-4475 = test: Cytotoxicity against human DU-4475 cells after 8 days; conditions: DU-4475, 192 h
# [13] = Cytotoxicity against human JHH-6 cells measured after 3 days; conditions: JHH-6, 72 h
# YMB-1-E = test: Cytotoxicity against human YMB-1-E cells measured after 3 days; conditions: 72 h
# [14] = Cytotoxicity against human 537-mel cells after 8 days; conditions: 192 h
# SUM149PT = test: Cytotoxicity against human SUM149PT cells measured after 3 days; conditions: 72 h
# CAL-85-1 = test: Cytotoxicity against human CAL-85-1 cells measured after 3 days; conditions: CAL-85-1, 72 h
# [15] = Cytotoxicity against human WSU-FSCCL cells measured after 3 days; conditions: 72 h
# HCC70 = test: Cytotoxicity against human HCC70 cells measured after 3 days; conditions: HCC70, 72 h
# SNU-387 = test: Cytotoxicity against human SNU-387 cells measured after 3 days; conditions: SNU-387, 72 h
# [16] = Cytotoxicity against human ATRFLOX cells measured after 3 days; conditions: 72 h
# KMS-11 = test: Cytotoxicity against human KMS-11 cells measured after 3 days; conditions: KMS-11, 72 h
# [17] = Cytotoxicity against human OVTOKO cells measured after 3 days; conditions: 72 h
# SR = test: Cytotoxicity against human SR cells measured after 3 days; conditions: 72 h
# MEL-HO = test: Cytotoxicity against human MEL-HO cells measured after 3 days; conditions: 72 h
# HCC1395 = test: Cytotoxicity against human HCC1395 cells measured after 8 days; conditions: HCC1395, 192 h
# Rec1 = test: Cytotoxicity against human REC1 cells measured after 3 days; conditions: Rec1, 72 h
# EFO-27 = test: Cytotoxicity against human EFO-27 cells measured after 3 days; conditions: EFO-27, 72 h
# EOL1 = test: Cytotoxicity against human EOL1 cells measured after 3 days; conditions: EOL1, 72 h
# HBL-100 = test: Cytotoxicity against human HBL-100 cells measured after 8 days; conditions: HBL-100, 192 h
# [18] = Cytotoxicity against human CoCM-1 cells measured after 3 days; conditions: CoCM-1, 72 h
# [19] = Cytotoxicity against human COV318 cells measured after 3 days; conditions: COV318, 72 h
# [20] = Cytotoxicity against human JHH-4 cells measured after 3 days; conditions: JHH-4, 72 h
# JeKo-1 = test: Cytotoxicity against human JeKo-1 cells measured after 3 days; conditions: JeKo-1, 72 h
# NCI-H460 = test: Antiproliferative activity against human NCI-H460 cells assessed as reduction in colony formation up to 20 uM supplemented with fresh medium containing compound every 3 days for 9 days by MTT staining based clonogenic assay; conditions: time 9.0 day
# MCF7 = test: Antiproliferative activity against human MCF7 cells assessed as reduction in colony formation up to 20 uM supplemented with fresh medium containing compound every 3 days for 9 days by MTT staining based clonogenic assay; conditions: time 9.0 day
# NCI-H23 = test: Antiproliferative activity against human NCI-H23 cells assessed as reduction in colony formation up to 20 uM supplemented with fresh medium containing compound every 3 days for 9 days by MTT staining based clonogenic assay; conditions: time 9.0 day
# A2058 = test: Antiproliferative activity against human A2058 cells assessed as reduction in colony formation upto 20 uM supplemented with fresh medium containing compound every 3 days for 9 days by MTT staining based clonogenic assay; conditions: time 9.0 day
compound,measurement,setting,value
C/C=C/Cn1cc(-c2cc(OC)c(C(=O)N3CCOCC3)cc2OC)c2cc(C)[nH]c2c1=O,IC50,[1],5 µM
same,IC50,OCI-LY19,5 µM
same,IC50,[2],5 µM
same,IC50,SUM-159-PT,5 µM
same,IC50,Granta-519,5 µM
same,IC50,OCI-AML2,5 µM
same,IC50,HCC1954,5 µM
same,IC50,[3],5 µM
same,IC50,Calu-6,2 µM
same,IC50,EFM-19,5 µM
same,IC50,U-698-M,5 µM
same,IC50,BJAB,5 µM
same,IC50,SUD4,5 µM
same,IC50,[4],5 µM
same,IC50,[5],5 µM
same,IC50,[6],5 µM
same,IC50,SUP-B15,5 µM
same,IC50,[7],5 µM
same,Activity,PC-9,inactive
same,IC50,[8],5 µM
same,IC50,[9],5 µM
same,IC50,OAW-42,5 µM
same,IC50,ES-2,5 µM
same,IC50,[10],5 µM
same,IC50,[11],5 µM
same,IC50,SU-DHL10,5 µM
same,IC50,HCC1187,5 µM
same,IC50,NCI-H2444,5 µM
same,IC50,ZR-75-1,2 µM
same,IC50,[12],5 µM
same,IC50,Jurkat,5 µM
same,IC50,PC-3,5 µM
same,IC50,DU-4475,2 µM
same,IC50,[13],5 µM
same,IC50,YMB-1-E,5 µM
same,IC50,[14],2 µM
same,IC50,SUM149PT,5 µM
same,IC50,CAL-85-1,5 µM
same,IC50,[15],5 µM
same,IC50,HCC70,5 µM
same,IC50,SNU-387,5 µM
same,IC50,[16],5 µM
same,IC50,KMS-11,5 µM
same,IC50,[17],5 µM
same,IC50,SR,5 µM
same,IC50,MEL-HO,5 µM
same,IC50,HCC1395,2 µM
same,IC50,Rec1,5 µM
same,IC50,EFO-27,5 µM
same,IC50,EOL1,5 µM
same,IC50,HBL-100,2 µM
same,IC50,[18],5 µM
same,IC50,[19],5 µM
same,IC50,[20],5 µM
same,IC50,JeKo-1,5 µM
C/C=C/Cn1cc(-c2ccc(C(C)(C)O)cc2OC)c2cc[nH]c2c1=O,Activity,NCI-H460,inactive
same,Activity,MCF7,inactive
same,Activity,NCI-H23,inactive
same,Activity,A2058,inactive

# Source: ChEMBL document CHEMBL5260810, “Inhibition of bromodomain-containing protein 9 for the prevention of epigenetically-defined drug resistance” (Bioorg Med Chem Lett, 2017)
